Assay results published in patent US20250092065A1, “2-(INDAZOL-5-YL)-6-(PIPERIDIN-4-YL)-1,7-NAPHTHYRIDINE DERIVATIVES AND RELATED COMPOUNDS AS MODULATORS FOR SPLICING NUCLEIC ACIDS AND FOR THE TREATMENT OF PROLIFERATIVE DISEASES” (REMIX THERAPEUTICS INC., priority 2022, published 2025).
Read-outs that look alike come from different tables or passages of the source.

Tests used:
[1] = tested on: K562 cells; assay: Cell Titer Glo 2.0 cell viability (toxicity) assay, K562; details: 500 cells/well, 72 hours
[2] = tested on: SMN2 mRNA; assay: RT-qPCR splicing assay, SMN2 mRNA; type: cell-based, human; details: canonical junction qPCR panel, Table 4, read-out: SMN2 IC50 (decrease in CJ mRNA levels)
Protocol: (§1) Compounds described herein were used to modulate RNA transcript abundance in cells. The expression of a target mRNA was measured by detecting the formation of an exon-exon junction in the canonical transcript (CJ). A compound mediated exon-inclusion event was detected by observing an increase in formation of a new junction with an alternative exon (AJ). Real-time qPCR assays were used to detect these splicing switches and interrogate the potency of various compounds towards different target genes. A high-throughput real time quantitative PCR (RT-qPCR) assay was developed to measure these two isoforms of the mRNA (CJ and AJ) for exemplary genes, such as HTT, SMN2, and MYB, together with a control housekeeping gene, GAPDH or GUSB or PPIA, used for normalization. Briefly, the A673 or K562 cell line was treated with various compounds described herein (e.g., compounds of Formula (I)). After treatment, the levels of the HTT, MYB, or SMN2 mRNA targets were determined from each sample of cell lysate by cDNA synthesis followed by qPCR.
(§2) The A673 cell line was cultured in DMEM with 10% FBS. Cells were diluted with full growth media and plated in a 96-well plate (15,000 cells in 100 ul media per well). The plate was incubated at 37° C. with 5% CO2 for 24 hours to allow cells to adhere. An 11-point 3-fold serial dilution of the compounds was made in DMSO then diluted in media in an intermediate plate. Compounds were transferred from the intermediate plate to the cell plate with the top dose at a final concentration of 10 uM in the well. Final DMSO concentration was kept at or below 0.25%. The cell plate was returned to the incubator at 37° C. with 5% CO2 for an additional 24 hours.
(§3) The K562 cell line was cultured in IMDM with 10% FBS. For K562, cells were diluted with full growth media and plated in either a 96-well plate (50,000 cells in 50 uL media per well) or a 384-well plate (8,000-40,000 cells in 45 uL media per well). An 11-point 3-fold serial dilution of the compounds were made in DMSO then diluted in media in an intermediate plate. Compound was transferred from the intermediate plate to the cell plate with the top dose at a final concentration of 10 uM in the well. Final DMSO concentration was kept at or below 0.25%. Final volume was 100 uL for 96-well plate and 50 uL for 384-well plate. The cell plate was then placed in an incubator at 37° C. with 5% CO2 for 24 hours.
(§4) The cells were then gently washed with 50 uL-100 uL cold PBS before proceeding to addition of lysis buffer. 30 uL-50 μL of room temperature lysis buffer with DNAse I (and optionally RNAsin) was added to each well. Cells were shaken/mixed thoroughly at room temperature for 5-10 minutes for lysis to take place and then 3 uL-5 μL of room temperature stop solution was added and wells were shaken/mixed again. After 2-5 minutes, the cell lysate plate was transferred to ice for RT-qPCR reaction setup. The lysates could also be frozen at −80° C. for later use.
(§5) In some cases, a direct lysis buffer was used. An appropriate volume of 3× lysis buffer (10 mM Tris, 150 mM NaCl, 1.5%-2.5% Igepal and 0.1-1 U/uL RNAsin, pH 7.4) was directly added to either K562 or A673 cells in media and mixed by pipetting 3 times. The plates were then incubated at room temperature with shaking/rocking for 20-50 minutes to allow for lysis to take place. After this time, the cell lysate plate was transferred to ice to set up for the RT-qPCR reactions. The lysates could also be frozen at −80° C. for later use.
(§6) To set up 10 uL RT-qPCR reactions, cell lysates were transferred to 384-well qPCR plates containing the master mix according to the table below. The plates were sealed, gently vortexed, and spun down before the run. The volumes were adjusted accordingly in some instances where the reaction was carried in 20 μL. The table below summarizes the components of the RT-qPCR reactions:
(§7) The RT-qPCR reaction was performed using a QuantStudio (ThermoFisher) under the following fast cycling conditions. […]

[3] = tested on: HTT mRNA; assay: RT-qPCR splicing assay, HTT mRNA canonical (CJ) and alternative (AJ) junction; type: cell-based, human
Protocol: as §1, §2, §3, §4, §5, §6, §7

[4] = tested on: MYB mRNA; assay: RT-qPCR splicing assay, MYB mRNA canonical (CJ) and alternative (AJ) junction; type: cell-based, human
Protocol: as §1, §2, §3, §4, §5, §6, §7

[5] = Homo sapiens, RT-qPCR, HTT alternative junction mRNA increase, read-out: HTT AJ (increase in alternative junction mRNA, AC50)
[6] = Homo sapiens, RT-qPCR, HTT canonical junction mRNA decrease, read-out: HTT CJ (decrease in canonical junction mRNA, IC50)
[7] = Homo sapiens, canonical junction qPCR panel, Table 4, read-out: HTT IC50 (decrease in CJ mRNA levels)
[8] = Homo sapiens, RT-qPCR, MYB alternative junction mRNA increase, read-out: MYB AJ (increase in alternative junction mRNA, AC50)
[9] = Homo sapiens, RT-qPCR, MYB canonical junction mRNA decrease, read-out: MYB CJ (decrease in canonical junction mRNA, IC50)
[10] = Homo sapiens, canonical junction qPCR panel, Table 4, read-out: MYB IC50 (decrease in CJ mRNA levels)

SMILES | IC50 ([2]; Homo sapiens) [nM] | IC50 [3, 6] [nM] | IC50 [3, 7] [nM] | IC50 [4, 9] [nM] | IC50 [4, 10] [nM] | IC50 ([3]; Homo sapiens, HTT canonical junction mRNA, RT-qPCR, read-out: HTT CJ (decrease in CJ mRNA levels, IC50)) [nM] | IC50 ([4]; Homo sapiens, MYB canonical junction mRNA, RT-qPCR, read-out: MYB CJ (decrease in CJ mRNA levels, IC50)) [nM] | IC50 [2] [nM] | IC50 ([3]; HTT canonical junction mRNA, RT-qPCR, read-out: HTT CJ (decrease in CJ mRNA levels, IC50)) [nM] | IC50 ([3]; canonical junction qPCR panel, Table 4, read-out: HTT IC50 (decrease in CJ mRNA levels)) [nM] | IC50 ([4]; MYB canonical junction mRNA, RT-qPCR, read-out: MYB CJ (decrease in CJ mRNA levels, IC50)) [nM] | IC50 ([4]; canonical junction qPCR panel, Table 4, read-out: MYB IC50 (decrease in CJ mRNA levels)) [nM] | Effect of Exemplary Compounds on Cell Viability, K562 [1] | AC50 [3, 5] [nM] | AC50 [4, 8] [nM] | AC50 ([3]; Homo sapiens, HTT alternative junction mRNA, RT-qPCR, read-out: HTT AJ (increase in AJ mRNA, AC50)) [nM] | AC50 ([4]; Homo sapiens, MYB alternative junction mRNA, RT-qPCR, read-out: MYB AJ (increase in AJ mRNA, AC50)) [nM] | AC50 ([3]; HTT alternative junction mRNA, RT-qPCR, read-out: HTT AJ (increase in AJ mRNA, AC50)) [nM] | AC50 ([4]; MYB alternative junction mRNA, RT-qPCR, read-out: MYB AJ (increase in AJ mRNA, AC50)) [nM]
C[C@H]1CN(c2ccc3nc(-c4cc(F)c5nc(CO)cn5c4)ncc3c2)C[C@H](C)N1 (single isomer, unassigned) [Compound 828] | < 100 | 100 to 1000 | 100 to 1000 | < 100 | < 100 |  |  |  |  |  |  |  | B (B represents 100-1000 nM) | 1000 to 10000 | < 100 |  |  |  | 
Cn1cc2cc(-c3ccc4nc(N5CCN6CCCC6C5)ccc4n3)c(O)cc2n1 (stereo not shown) [Compound 134] | < 100 |  | 1000 to 10000 |  | 100 to 1000 | 1000 to 10000 | 100 to 1000 |  |  |  |  |  | C (C represents 1000-9999 nM) |  |  | 1000 to 10000 | 100 to 1000 |  | 
Cc1c(O)c(-c2ccc3nc(N4CCC(NC(C)(C)C)C4)ccc3n2)cc2cn(C)nc12 (stereo not shown) [Compound 275] |  |  |  |  |  |  |  | < 100 | < 100 | < 100 | < 100 | < 100 |  |  |  |  |  | < 100 | < 100

Further lines, with some results ahead:

IC50 ([2]; Homo sapiens) [nM] | IC50 [3, 6] [nM] | IC50 [3, 7] [nM] | IC50 [4, 9] [nM] | IC50 [4, 10] [nM] | IC50 ([3]; Homo sapiens, HTT canonical junction mRNA, RT-qPCR, read-out: HTT CJ (decrease in CJ mRNA levels, IC50)) [nM] | IC50 ([4]; Homo sapiens, MYB canonical junction mRNA, RT-qPCR, read-out: MYB CJ (decrease in CJ mRNA levels, IC50)) [nM] | IC50 [2] [nM] | IC50 ([3]; HTT canonical junction mRNA, RT-qPCR, read-out: HTT CJ (decrease in CJ mRNA levels, IC50)) [nM] | IC50 ([3]; canonical junction qPCR panel, Table 4, read-out: HTT IC50 (decrease in CJ mRNA levels)) [nM] | IC50 ([4]; MYB canonical junction mRNA, RT-qPCR, read-out: MYB CJ (decrease in CJ mRNA levels, IC50)) [nM] | IC50 ([4]; canonical junction qPCR panel, Table 4, read-out: MYB IC50 (decrease in CJ mRNA levels)) [nM] | SMILES | Effect of Exemplary Compounds on Cell Viability, K562 [1] | AC50 [3, 5] [nM] | AC50 [4, 8] [nM] | AC50 ([3]; Homo sapiens, HTT alternative junction mRNA, RT-qPCR, read-out: HTT AJ (increase in AJ mRNA, AC50)) [nM] | AC50 ([4]; Homo sapiens, MYB alternative junction mRNA, RT-qPCR, read-out: MYB AJ (increase in AJ mRNA, AC50)) [nM] | AC50 ([3]; HTT alternative junction mRNA, RT-qPCR, read-out: HTT AJ (increase in AJ mRNA, AC50)) [nM] | AC50 ([4]; MYB alternative junction mRNA, RT-qPCR, read-out: MYB AJ (increase in AJ mRNA, AC50)) [nM]
< 100 | 1000 to 10000 | 1000 to 10000 | 100 to 1000 | 100 to 1000 |  |  |  |  |  |  |  | Cc1cn2cc(-c3ncc4cc(N5C[C@H](C)N[C@@H](C)C5)ccc4n3)ccc2n1 [Compound 827] | B (B represents 100-1000 nM) | 1000 to 10000 | 100 to 1000 |  |  |  | 
< 100 | 100 to 1000 | 100 to 1000 | < 100 | < 100 |  |  |  |  |  |  |  | C[C@H]1CN(c2ccc3nc(-c4cc(F)c5nc(CF)cn5c4)ncc3c2)C[C@H](C)N1 [Compound 829, 6-[(3S,5S)-3,5-dimethylpiperazin-1-yl]-2-[8-fluoro-2-(fluoromethyl)imidazo[1,2-a]pyridin-6-yl]quinazoline] | B (B represents 100-1000 nM) | 100 to 1000 | 100 to 1000 |  |  |  | 
< 100 | 1000 to 10000 | 1000 to 10000 | 100 to 1000 | 100 to 1000 |  |  |  |  |  |  |  | COc1cc(-c2ncc3cc(N4C[C@@H](C)N[C@@H](C)C4)ccc3n2)cn2cc(C)nc12 [Compound 830] | B (B represents 100-1000 nM) | > 10000 | 100 to 1000 |  |  |  | 
< 100 | 100 to 1000 | 100 to 1000 | < 100 | < 100 |  |  |  |  |  |  |  | Cc1cn2cc(-c3ncc4cc(N5C[C@@H](C)N[C@@H](C)C5)ccc4n3)cc(C#N)c2n1 [Compound 831] | B (B represents 100-1000 nM) | 1000 to 10000 | < 100 |  |  |  | 
